# Measurements: patent publication EP0782997A2, “Triazolopyrimidine derivatives” (SHELL INTERNATIONALE RESEARCH MAATSCHAPPIJ B.V., priority 1991, dated 1993)
# Tests used:
# Venturia inaequalis = assay: Fungicidal activity against Venturia inaequalis on Malus sp. (apple cuttings, protectant spray); format: in vivo; design: key: 0 = no infection; 1 = 1-10% infection; 2 = 11-40% infection; 3 = 41-100% infection; conditions: extent of infection score; apple cuttings variety Morgenduft; test compound 400 ppm; infected after 24 hours; assessed after about 14 days
# Procedure: Fungicidal activity against Venturia inaequalis on Malus sp.
# Apple cuttings of the variety Morgenduft, which are about 6 weeks old, were treated with a solution of the test compound (400 ppm) in water/acetone/Triton X or water/methanol/Triton X. After 24 hours, the plants were infected with a conidia suspension of Venturia inaequalis (about 50,000 conidia/ml), incubated in a dark climatic chamber at a relative humidity of 100% for 48 hours and then kept at a relative humidity of 95-99% and temperature of 18-20°C during the day and 13°C during the night for about 14 days. The extent of infection was assessed according to the following scheme:- • 0 = no infection • 1 = 1-10% infection • 2 = 11-40% infection • 3 = 41-100% infection The results of these tests are set out in Table II below:-
# Alternaria solani [1] = assay: MIC determination by serial dilution in microtitre plates; format: cell-based; conditions: lowest concentration without mycelial growth, V8 juice nutrient solution, 20°C, 6-8 days, visual inspection
# Procedure: (§1) Determination of MIC-Values of compounds against various phytopathogenic fungi
# (§2) The MIC (Minimum Inhibition Concentration)-values were determined by serial dilution tests using 48-well microtitre plates. The dilution of the test compounds in the nutrient solution and the distribution to the wells were carried out by a TECAN RSP 5000 robotic sample processor.
# (§3) For preparation of the nutrient solution, V8 juice (Trade Mark) was neutralised with calcium carbonate and centrifuged. The supernatant was diluted with distilled water (1:5) to the final concentration.
# (§4) The fungi (Alternaria solani, Botrytis cinerea, Septoria nodorum) were added into the wells as a droplet of spore suspension. The microtitre plates were then incubated at 20°C for 6-8 days. The MIC-value was determined by visual inspection of the plates. In the case of Alternaria solani and Botrytis cinerea, the lowest concentration in the dilution series without mycelial growth was defined to be the MIC-value. For Septoria nodorum, no MIC-value but only a strong inhibition of growth was regularly observed.
# Botrytis cinerea [2] = assay: as above; format: cell-based; conditions: lowest concentration without mycelial growth, V8 juice nutrient solution, 20°C, 6-8 days, visual inspection
# Procedure: as §1, §2, §3, §4
# [3] = system: Erysiphe graminis f.sp. hordei; assay: Activity against barley powdery mildew (EG), Example 120; format: in vivo; conditions: barley seedlings, foliar spray 1000 ppm, direct therapeutic; disease control rating
# Botrytis cinerea [4] = assay: Direct protectant activity against broad bean grey mould (BCB), Example 120; format: in vivo; conditions: broad bean plants, foliar spray 1000 ppm, disease control rating
# Rhizoctonia solani = assay: Activity against Rhizoctonia in-vitro (RSI), Example 120; format: cell-based; conditions: 50 ppm compound, 2.5% acetone, 20°C, 10 days, mycelial growth, rating
# Pyricularia oryzae = format: in vivo; conditions: rice seedlings, foliar spray 1000 ppm, direct therapeutic; disease control rating
# Leptosphaeria nodorum = assay: Activity against wheat leafspot (LN), Example 120; format: in vivo; conditions: wheat plants, foliar spray 1000 ppm, direct therapeutic; disease control rating
# Alternaria solani [5] = assay: Activity against tomato early blight (AS), Example 120; format: in vivo; conditions: tomato seedlings, foliar spray as described under (a) (1000 ppm), contact prophylactic; disease control rating
# [6] = system: Pseudocercosporella herpotrichoides; assay: Activity against wheat eyespot in-vitro (PHI), Example 120; format: cell-based; conditions: 50 ppm compound, 2.5% acetone, 20°C, 12 days, mycelial growth, rating
Structure (SMILES),Activity (Venturia inaequalis),MIC (Alternaria solani [1]),MIC (Botrytis cinerea [2]),further results
"COc1ccc(-c2cnc3ncnn3c2NC2CCCC2)cc1 [Example 3, 6-(4-methoxyphenyl)-7-cyclopentylamino-1,2,4-triazolo[1,5-a]pyrimidine]",2.5,,,
"Brc1nc2ncnn2c(NC2CCCC2)c1-c1ccccc1 [Example 2, 5-bromo-6-phenyl-7-cyclopentylamino-1,2,4-triazolo[1,5-a]pyrimidine]",0,,,
"Clc1ccccc1-c1c(I)nc2ncnn2c1NC1CCCC1 [Example 6, 5-iodo-6-(2-chlorophenyl)-7-cyclopentylamino-1,2,4-triazolo[1,5-a]pyrimidine]",,3.13 µg/mL,6.25 µg/mL,
"Cc1ccc(-c2c(Cl)nc3ncnn3c2NC2CCCC2)cc1 [Example 1, 5-chloro-6-(4-methylphenyl)-7-cyclo-pentylamino-1,2,4-triazolo[1,5-a]pyrimidine]",1 (1 = 1-10% infection),1.56 µg/mL,12.5 µg/mL,
CC(C)Nc1c(-c2ccccc2F)c(Cl)nc2ncnn12 [Example 41],0,12.5 µg/mL,25 µg/mL,Fungicidal Activity EG [3]: 2 (2 = greater than 80% disease control); Fungicidal Activity BCB (Botrytis cinerea [4]): 2 (2 = greater than 80% disease control); Fungicidal Activity RSI (Rhizoctonia solani): 2 (2 = greater than 80% disease control); Fungicidal Activity PO (Pyricularia oryzae): 2 (2 = greater than 80% disease control); Fungicidal Activity LN (Leptosphaeria nodorum): 2 (2 = greater than 80% disease control); Fungicidal Activity AS (Alternaria solani [5]): 2 (2 = greater than 80% disease control); Fungicidal Activity PHI [6]: 1 (1 = about 50-80% disease control)
"CNc1nc2ncnn2c(NC2CCCC2)c1-c1ccccc1 [Example 4, 5-methylamino-6-phenyl-7-cyclopentylamino-1,2,4-triazolo[1,5-a]pyrimidine]",2.3,,,
